# Columns and labels:
# [1] = two-compartment pharmacokinetics model estimation, rat models; parameters: species or system rats; settings: for σ scaling factor of infusion rate: rat two-compartment model; for K12 rate constant: rat two-compartment model fit to Vijn and Sneyd BSR time courses after 10-second bolus (8 mg kg^−1 propofol, 3.5 mg kg^−1 etomidate)
# From the text: In one clinical application, the control target may be to achieve and maintain a target BSR corresponding to medical coma, thereby maintaining an equilibrium effect-site concentration. To design a suitable but not overly-complex model, it may be assumed that, due to the time lag between central compartment drug infusion and effect-site concentration increase, there must be at least two compartments to accurately model the evolution of the drug concentrations. Such a simplified two-compartment model is composed of the central plasma compartment and the auxiliary effect-site compartment connected by a first-order transfer process, ignoring any other peripheral drug distribution compartments.
# The pharmacokinetic model in FIG. 9A can be described by the second-order linear differential equation system: […]
# for an infusion rate of ut, in units of μg/s, scaled by a factor of σ. The kinetic rate constants k12 and k21 govern the drug flow between compartments, while the rate constant k10 determines the rate of the drug's clearance from the central compartment. The slow peripheral compartment and fast peripheral compartment, common in many population models, are not included.
# These estimated parameters were used to design the closed-loop controller (see below) in order to yield a critically damped system response, that is, the fastest rise times without overshoot.
# For the human models, existing population pharmacokinetic models were calibrated for a 180-cm, 70-kg person. […] Since a patient may not enter a state of burst suppression the instant the effect-site concentration is nonzero, the concentration trace was shifted negatively and transformed to pt such that the patient peaked at a BSP of 0.7, and came out of burst suppression 7 minutes after the initiation of the dose. […] Anesthesiology 65: 19-27, which is incorporated herein by reference, was used to numerically evaluate the effect-site concentration during and after a 10-second bolus of […].
# Matlab's Optimization Toolbox was used to optimize these four parameters of the pharmacokinetic model to minimize this mean squared error, and yield an estimate of the best-fit rate constants and scaling factor.
# [2] = system: alpha (8-13 Hz) power
# From the text: 14 patients were implanted with iEEG electrode arrays as part of standard clinical treatment for intractable epilepsy. The arrays included linear penetrating depth arrays having 6-8 electrodes, subdural grid arrays having 16-64 electrodes, and/or subdural strip arrays having 4-16 electrodes (Adtech Medical, Racine, Wis.) (FIG. 21). Surface EEG electrodes were additionally applied to six patients in a subset of the standard 10-20 EEG configuration. Electrode placement was selected by the patients' clinicians without regard to the current study. […] Recordings were obtained during electrode explant surgery that occurred after 1-3 weeks of inpatient monitoring to determine epileptogenic foci. Signal acquisition began prior to induction of general anesthesia and continued until the electrodes were disconnected for explant. EEG and iEEG signals were recorded with a sampling rate of a 2000, 500, or 250 Hz depending on settings of the hospital's clinical acquisition system. Signals were digitized with hardware amplifiers (XLTEK, Natus Medical, Inc., San Carlos, Calif.) that bandpassed between 0.3 Hz and the sampling rate, and were stored on a computer (Dell) for offline processing.
# Drug protocols were selected by the patients' clinicians without regard to the current study.
# Patients were delivered auditory stimuli through headphones (prerecorded words and the patient's name) approximately every 4 seconds during the task, and were instructed to respond with a button click. Responses were recorded using stimulus presentation software (Presentation, Neurobehavioral Systems, Inc., Albany, Calif., or EPrime, Psychology Software Tools, Inc., Sharpsburg, Pa.). […] This patient was excluded from group analyses of peri-LOC dynamics.
# In each subject, two epochs were distinguished over the recording period. […] We used visual inspection to identify the postinduction epoch. […] Burst suppression intervals were excluded to avoid the confound of low-power suppression intervals in group analyses, which differed in total time across patients. […]
# [3] = system: burst suppression; settings: patient after propofol bolus induction
# From the text: Typically, in the operating room, a bolus dose of an anesthetic is rapidly administered to induce general anesthesia. It is often the case that the patient enters burst suppression within seconds and might remain in that state for several minutes. Since the efficiency of the drug depends on several empirical factors, it is relevant to monitor the level of suppression that is reached and its trajectory, which may help detect any anomaly, or tune the subsequent doses or levels of anesthesia.
# The EEG was recorded from a scalp electrode at the FP1 site referenced to the FZ electrode of the standard electrode configuration. […] The choice of Δ=250 corresponds to a resolution of one second as in the previous case.
# [4] = system: dopaminergic arousal pathway; settings: cited from earlier work
# [5] = system: burst suppression; experiment: physostigmine effect on stable burst suppression, rat EEG; format: in vivo, Sprague-Dawley rat; settings: rat deeply anesthetized with 2% isoflurane
# From the text: The following description is with respect to an analysis of a rat under general anesthesia-induced burst suppression The BSP is compared to the BSR in order to illustrate its benefits. For the experiments described herein, signals were first band pass filtered between 5 and 30 Hz. The filtered signals were thresholded and suppression segments less than 500 milliseconds in duration were switched to 1. The binary series was then provided as an input to the BSP algorithm.
# The BSP algorithm was evaluated on a rat EEG signal recorded to test whether physostigmine, a cholinergic agonist hypothesized to increase arousal, causes the burst suppression pattern observed during deep anesthesia to switch into continuous activity (associated with increased arousal). In this experiment, it is advantageous to know whether physostigmine, and not saline (control), induces a shift from burst suppression (deep anesthesia) to a delta wave pattern (lighter anesthesia). In case it does, it is desirable characterize the temporal dynamics of that change.
# A rat pre-implanted with extradural EEG electrodes was deeply anesthetized with 2% isoflurane. After stabilization of the inhaled concentration, the EEG signal, was recorded for 10 minutes prior to a saline intravenous injection (control). Six minutes later, physostigmine was injected and the recording was maintained for an additional thirty minutes. […]
# [6] = rat two-compartment model fit to Vijn and Sneyd BSR time courses after 10-second bolus
structure (smiles),measurement,setting,value
CCOC(=O)c1cncn1[C@H](C)c1ccccc1 [Etomidate],σ scaling factor of infusion rate,[1],0.8394
same,K21 rate constant,[1]; [6],0.6703 min⁻¹
same,K12 rate constant,[1],0.01547 min⁻¹
"CC(C)c1cccc(C(C)C)c1O [Propofol, 2,6-di-isopropylphenol]",time after LOC to abrupt suppression of alpha power,"[2]; Patient 9, occipital and temporal channels",≤ 10 s
same,increase of median alpha power in the postinduction period,"[2]; hippocampus, cingulate cortex, medial white matter electrodes",approximately 5 dB
same,change of alpha power in the postinduction period,"[2]; occipital, parietal, inferotemporal cortex and primary auditory cortex",consistently decreased
same,σ scaling factor of infusion rate,[1],0.5885
same,K10 rate constant (clearance from central compartment),[1]; [6],4.552 min⁻¹
same,K21 rate constant,[1]; [6],0.9599 min⁻¹
same,K12 rate constant,[1],0.01557 min⁻¹
same,BSP reached after slow second increase,[3],around 0.7
same,"BSP, binary filter estimate, at minute 2",[3],around 0.5
same,"BSP, binary filter estimate, decrease after minute 2",[3],around 0.2
same,"BSP, smoother estimate, at minute 2",[3],~0.6
same,"BSP, smoother estimate, decrease after minute 2",[3],~0.1
same,duration of burst suppression,[3],about 8 minutes
COC(=O)C(c1ccccc1)C1CCCCN1 (centres unmarked) [methylphenidate],emergence from general anesthesia,[4]; isoflurane general anesthesia,actively induces emergence from isoflurane general anesthesia
same,minute ventilation,[4]; plethysmography and blood gas experiments,increases minute ventilation
CNC(=O)Oc1ccc2c(c1)[C@]1(C)CCN(C)[C@@H]1N2C [physostigmine],time out of suppression after injection,[5],around 10 minutes
same,BSP after injection,[5]; baseline BSP around 0.5,0

# — US20190374158A1, “SYSTEM AND METHOD FOR MONITORING AND CONTROLLING A STATE OF A PATIENT DURING AND AFTER ADMINISTRATION OF […]” (The General Hospital Corporation, priority 2012, published 2019)
